These are literature values, as cited in US11419828B2, “Hair care terpinen 4-ol (T4O) composition for the treatment of demodex mites on scalp” (priority 2021, dated 2022).

The conditions of data set [1]: at levels up to 75%.
The subject of the next data set is Demodex mites. Conditions: 75% alcohol, 10% povidone-iodine, erythromycin.
In the next data set the test system is Demodex. As to conditions: 38% concentration of terpinen-4-ol, over a period of 4 weeks.

As for `OCCCO` [Propanediol, Propanediol 1,3], in data set [1], the “potential to irritate or sensitize skin” value is given as “low potential to irritate or sensitize skin”.
In the case of `CCO` [alcohol], the “Demodex mites' resistance to antiseptic agent” value (shortened to “Demodex mites' resistance”) with Demodex mites is listed as “resistant”.
In the case of `CC[C@H]1OC(=O)[C@H](C)[C@@H](O[C@H]2C[C@@](C)(OC)[C@@H](O)[C@H](C)O2)[C@H](C)[C@@H](O[C@@H]2O[C@H](C)C[C@H](N(C)C)[C@H]2O)[C@](C)(O)C[C@@H](C)C(=O)[C@H](C)[C@@H](O)[C@]1(C)O` [erythromycin], the “Demodex mites' resistance” value with Demodex mites is listed as “resistant”.
`CC1=CCC(O)(C(C)C)CC1` (centres unmarked) [terpinen-4-ol, Terpinen-4-ol]: in the data set with Demodex, the “reduction of Demodex” value was “reduce Demodex effectively”.
As to povidone-iodine, in the data set on Demodex mites, the “Demodex mites' resistance” value was “resistant”.
